Experiments:
clonal stem cells (AP14) = test: Neuronal differentiation of clonal adult stem cell cultures (Map2ab immunofluorescence); assay type: cell-based, rat
Experimental: Cell Culture. For proliferating conditions, clonal stem cells (AP14) were cultured in Dulbecco's Modified Eagles Medium/Ham's F12 (DMEM/F12, 1:1) containing N2 supplement (Gibco BRL, Gaithersburg, Md.) and 20 ng/ml rhFGF-2 (provided by A. Baird, Prizm Pharmaceuticals Inc., La Jolla, Calif.). Culture dishes (Becton Dickinsin Labware, Lincoln Park, N.J.) were coated with polyomithine and mouse laminin as previously described by Ray, et al., Proliferation, differentiation and long-term culture of primary hippocampal neurons, Proc Natl Acad Sci USA 90:3602-3606 (1993). For differentiation experiments, cells were plated into polyornithine/laminin coated glass chamber slides (Nunc, Naperville, Ill.) at a density of 2.5—103 per cm2. […] Louis, Mo.). For further differentiation, the medium was replaced by N2 medium containing 0.5% FBS and one of the following: sterile water (control solvent), mouse 2.55 NGF (50 ng/ml, Boehringer Mannheim, Indianapolis, Ind.), rhBDNF (20 ng/ml, Alomone Labs, Jerusalem, Israel), rhNT-3 (40 ng/ml, Genentech, South San Francisco, Calif.). […]
Immunofluorescence. […] Both the average percentage and the absolute number +/− SEM of immunofluorescent cells were determined by counting 10 or 50 high power fields (20×) visualized under fluorescence. The total number of cells was counted using nuclear counterstaining with 4′,6diamidino-2-phenylindole (DAPI, Sigma). […]

[1] = test system: low buoyancy fraction cells from hippocampus or cortex; test: Proliferation of low buoyancy hippocampus or cortex cells in growth medium; assay type: cell-based, rat; conditions: 20 ng/ml FGF-2, after 10 days
Description: Tissue dissociation and fractionation: Tissues were finely minced and digested in a solution of papain (2.5 U/ml, Worthington), DNAse (250 U/ml, Worthington), and neutral protease (1 U/ml Dispase, Boehringer) dissolved in Hanks balanced salt solution, as described in Palmer T D, Ray J, Gage F H (1995), FGF-2-Responsive Neuronal Progenitors Reside in Proliferative and Quiescent Regions of the Adult Rodent Brain. Mol Cell Neurosci 6:474-486; and Gage F H, Coates P W, Palmer T D, Kuhn H G, Fisher L J, Suhonen J O, Peterson D A, Suhr S T, Ray J (1995), Survival and differentiation of adult neuronal progenitor cells transplanted to the adult brain. Proc Natl Acad Sci USA 92:11879-11883. Cells and tissue fragments were washed 3 times with Dulbecco's Modified Eagles Medium (DMEM) containing 10% […] bovine serum (defined FBS, Hyclone). Whole digested tissue was then suspended in DMEM 10% FBS, filtered through a sterile 107 μm nylon mesh and thoroughly mixed with an equal volume of PERCOLL™ (polyvinylpyrrolidone-coated silica colloids) solution. […]
Although BrdU-labeled cells fractionated to the low buoyancy population, most of the isolated cells were unlabeled, consistent with the isolation of immature, yet relatively quiescent precursors. […] Cell division was monitored by counting cells and by treating replicate cultures with BrdU at different times post plating. […]

CC1=C(/C=C/C(C)=C/C=C/C(C)=C/C(=O)O)C(C)(C)CCC1 [RA, all-trans retinoic acid]
number of Map2ab-immunoreactive (IR) neurons relative to growth factor withdrawal and 0.5% serum alone (clonal stem cells (AP14); FGF-2 withdrawal, 500 nM RA plus 0.5% FBS 6 days, then 6 days 0.5% serum alone): more than tripled | increase in number of MAP2ab-positive cells (clonal stem cells (AP14); RA for 6 days, then RA withdrawn for additional 6 days): 3 fold

FGF-2: basic fibroblast growth factor, human recombinant, prepared in E. coli
cells dividing in a given 24-hour period [1]: roughly 85% | cells labeled following a 48 hour exposure to BrdU [1]: > 99%
